From ChEMBL document CHEMBL3244359, “Aromatic hydroxylation of beta-adrenergic antagonists. 4- and 5-hydroxylation of 1-(isopropylamino)-3-[2-(allyloxy)phenoxy]-2-propanol (oxprenolol)” (J Med Chem, 1978) come the findings set out here.

Data set [1] is described as follows: Drug excretion in Sprague-Dawley rat urine treated with oxprenolol at 20 mg/kg, ip after 24 hrs by GC-CIMS analysis. Format: ADME, organism-based. The arrangement: dose 20 mg/kg, route intraperitoneal. The following applies: in vivo.
Data set [2] in a line: Retention time of the compound by gas chromatography. Format: physicochemical.
Data set [3] can be described thus: Drug excretion in Sprague-Dawley rat urine treated with oxprenolol at 20 mg/kg, ip after 24 hrs by GC-CIMS analysis in presence of beta-glucuronidase and CH2N2. Details: dose 20 mg/kg, route intraperitoneal. To be noted: in vivo. Format: ADME, organism-based.

Take `C=CCOc1cc(O)ccc1OCC(O)CNC(C)C` (centres undefined): in data set [1], the Drug excretion result was “metabolite_detected”.

Turning to `C=CCOc1ccc(O)cc1OCC(O)CNC(C)C` (centres undefined), in data set [1], the Drug excretion entry is given as “metabolite_detected”.

`C=CCOc1ccccc1OCC(O)CNC(C)C.O=C(O)C(F)(F)F` (centres undefined): in data set [2], the Retention_time came to 5.7 min.

As to `C=CCOc1cc(OC)ccc1OCC(O)CNC(C)C.O=C(O)C(F)(F)F` (centres undefined), the Drug excretion entry in data set [3] is “metabolite_detected”. The compound also had a Retention_time in data set [2] of 13.1 min.

On to `C=CCOc1ccc(OC)cc1OCC(O)CNC(C)C.O=C(O)C(F)(F)F` (centres undefined), for which the Drug excretion entry in data set [3] was “metabolite_detected”. In addition, the Retention_time in data set [2] came to 11.8 min.

Compound `C=CCOc1c(OC)cccc1OCC(O)CNC(C)C.O=C(O)C(F)(F)F` (centres undefined) returned a Retention_time in data set [2] of 9.6 min.

Compound `C=CCOc1cccc(OC)c1OCC(O)CNC(C)C.O=C(O)C(F)(F)F` (centres undefined) gave a Retention_time in data set [2] of 10.5 min.
